Values quoted from earlier work in patent US7012096B2, “Composition for pain mediation and apparatus and method of use thereof” (Palladin Healthcare International, Inc., priority 1998, dated 2006).

Columns and labels:
human fibroblasts = settings: in vitro tissue culture
human keratinocytes = settings: in vitro tissue culture

For `CC(=O)O` [acetic acid], the “Concentration toxic to human fibroblasts” value (human fibroblasts) is given as “above 0.025%” and the “Concentration toxic to human keratinocytes” value (human keratinocytes) is given as “above 0.025%”.
